Source: PubChem BioAssay (NCI)
“And” between values parts separate entries of the source, which are not always exact repeats. Equal values may be shown once.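 Growth conditions: 96-well plates. Treatment: test compound, 48 hours, 5 concentrations. Analysis: linear interpolation between bracketing concentrations; unreached endpoints set to highest concentration. GI50 is the concentration that inhibits growth by half. TGI: total growth inhibition.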

How the values were obtained:
Test in all cases: NCI anticancer screen, dose series, 48 h
RXF 393 renal = system: RXF 393 renal
RPMI-8226 leukemia = system: RPMI-8226 leukemia
SR leukemia = system: SR leukemia
SNB-75 CNS = system: SNB-75 CNS
NCI-H522 lung = system: NCI-H522 lung
OVCAR-3 ovarian = system: OVCAR-3 ovarian
UACC-257 melanoma = system: UACC-257 melanoma
A549 NSCLC = system: A549 NSCLC
K-562 leukemia = system: K-562 leukemia
M14 melanoma = system: M14 melanoma

Structure (SMILES)	GI50 (RXF 393 renal) [µM]	TGI (RXF 393 renal) [µM]	GI50 (RPMI-8226 leukemia)	TGI (RPMI-8226 leukemia) [µM]	GI50 (SR leukemia) [µM]	TGI (SR leukemia) [µM]	GI50 (SNB-75 CNS) [µM]	TGI (SNB-75 CNS)	GI50 (NCI-H522 lung) [µM]	TGI (NCI-H522 lung)	GI50 (OVCAR-3 ovarian) [µM]	TGI (OVCAR-3 ovarian) [µM]	GI50 (UACC-257 melanoma) [µM]	TGI (UACC-257 melanoma) [µM]	GI50 (A549 NSCLC) [µM]	TGI (A549 NSCLC) [µM]	GI50 (K-562 leukemia) [µM]	TGI (K-562 leukemia) [µM]	GI50 (M14 melanoma) [µM]	TGI (M14 melanoma) [µM]
COc1ccc(-c2ccc(/C=C/C(=O)NO)cc2)cc1	0.554	3.03	0.697 µM	> 100	0.378	> 20.6	1.38	5.06 µM	0.801	16.4 µM	0.518	2.76	2.13	13.8	0.317	6.14	2.39	> 100	1.45	7.64
c1ccc2c(CNCCCCCCNCc3cccc4ccccc34)cccc2c1	–	6.9	–	6.79	–	4.47	–	6.68 µM	–	9.78 µM	–	30.6	–	3.17	–	32.3	–	3.22	–	3.25
COc1ccc(OC)c(-c2nc3sccn3c2/C=C2/C(=O)Nc3ccc(Cl)cc32)c1	27.6	> 100	26.9 µM	94.8	18.5	53.4	19.7	48.6 µM	21.5	51.6 µM	21.7	55.2	21.4	44.3	38.9	> 100	29.9	> 100	23.1	53.8
C=C(C=O)C1CC(=O)C(C(=O)OC)[C@@H]2O[C@@](C)(CC2=O)C[C@@H]2OC(=O)[C@]3(O[C@@H]23)[C@@H](C(=O)OC)C1 (some centres not stated)	9.3	33.6	4.16 µM	21.8	2.63	7.96	31	> 100 µM	7.03	41.5 µM	12.8	32.8	10.2	28.6	29	67.1	20.1	> 100	14.8	30.4
CN(C)C[C@H]1CC[C@@H](CN(C)C)C1=O	–	16.8	1.17 µM	> 12.9	–	> 50	–	> 28.7 µM	0.269	0.686 µM and 1.18 µM	–	16.6	–	16	–	> 50	–	1.43	–	16.7
C=CN1C(=O)OC(c2ccccc2)C1c1ccccc1 (configuration not stated)	> 100	> 100	> 31.6 µM and 88.6 µM	> 100	–	> 100	–	21.9 µM and > 100 µM	> 100	> 100 µM	> 100	> 100	> 100	> 100	> 100	> 100	–	> 100	> 100	> 100
O=C(O)c1c(O)c2cc(Br)ccc2oc1=O	–	> 100	–	> 100	–	> 100	–	> 100 µM	–	> 100 µM	–	> 100	–	> 100	–	> 100	–	> 100	–	> 100
NC(=O)CCC(NC(=O)OCc1ccccc1)C(=O)OCC(=O)c1ccccc1 (configuration not stated)	> 100	> 100	> 100 µM	> 100	> 100	> 100	> 100	> 100 µM	> 100	> 100 µM	> 100	> 100	> 100	> 100	> 100	> 100	> 100	> 100	–	–
CC1(C)N=C(N)N=C(N)N1c1cccc(C#N)c1	4.33	> 100	62.9 µM	> 100	4.36	> 100	9.03	> 100 µM	4.68	> 100 µM	19	> 100	11.7	> 100	0.932	> 100	0.293	> 100	0.696	> 100
CC(=O)OCC1OC(OC2C(COC(C)=O)OC(OCCC[S-])C(OC(C)=O)C2OC(C)=O)C(OC(C)=O)C(OC(C)=O)C1OC(C)=O.[Au+].c1ccc(CN2[CH-]N(Cc3ccccc3)C(c3ccccc3)=C2c2ccccc2)cc1 (configuration not stated)	3.28	12.3	2.78 µM	11.1	2.61	20.6	2.86	17 µM	1.72	4.55 µM	2.62	8.48	3.44	10.4	4.29	25	3.27	14.5	3.26	14.5
CN(C)CCCNc1nn2c(=O)c3ccccc3nc2c2ccccc12	14.2	30.6	11.9 µM	33.7	2.55	8.74	2.73	51.1 µM	2.14	24 µM	10.5	26.4	16	32.6	5.64	25.2	9.94	31.8	11.8	24.5
COc1ccc(/C=C/c2c(C(=O)/C=C/c3ccc(Cl)cc3)c(C)nc3ccccc23)cc1	1.78	3.34	1.91 µM	6.77	1.37	> 100	1.5	3.14 µM	1.59	4.62 µM	1.62	3.19	2.09	4.55	2.69	9.6	2.19	> 100	1.83	4.15
